Ki data for 94 molecules are collected here from the kinase profiling compilation of Christmann-Franck et al. (2016).

Where only a bound is given, the exact number is not on record here.

As usually defined, the Ki is the dissociation constant of the complex between target and ligand, obtained from inhibition or displacement. Low values mean higher affinity, high ones lower affinity.

This experiment deals with SGK1 (human) (UniProt O00141). In words: Flashplate.
Chain of SGK1 (human) (O00141 whole entry, looked up): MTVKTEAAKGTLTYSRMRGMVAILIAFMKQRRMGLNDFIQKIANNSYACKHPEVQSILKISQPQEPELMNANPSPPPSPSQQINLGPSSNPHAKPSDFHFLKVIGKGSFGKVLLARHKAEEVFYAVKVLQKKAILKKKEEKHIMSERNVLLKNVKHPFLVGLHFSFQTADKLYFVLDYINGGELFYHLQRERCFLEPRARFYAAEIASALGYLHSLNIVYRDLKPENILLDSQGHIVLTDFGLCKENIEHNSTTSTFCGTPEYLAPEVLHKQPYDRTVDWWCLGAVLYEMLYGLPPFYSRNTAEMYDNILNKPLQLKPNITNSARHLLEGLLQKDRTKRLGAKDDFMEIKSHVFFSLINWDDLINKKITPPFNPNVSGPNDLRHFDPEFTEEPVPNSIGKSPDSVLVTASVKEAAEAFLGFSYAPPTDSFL
Take `Cc1ccc2nccc(NC(=O)Nc3cccc(C(F)(F)F)n3)c2c1`: the Ki is greater than 10 µM. The same measure for `CC(=O)Nc1cc(N)c(C#N)c(-c2ccc3ccccc3c2)n1`: greater than 10 µM. Regarding `CC(C)n1nnc2ccc(-c3c(-c4ccc(F)cc4F)nc4occn34)cc21`, the inhibitory constant (Ki) was greater than 10 µM.

For `O=c1[nH]cc(I)c2nc(-c3cccc(Cl)c3)cn12`, the Ki came out at 7.94 µM. Molecule `CC(C)Cn1c(N)nc2c(F)cc(-c3c(-c4ccc(F)cc4)nc4sccn34)cc21` came in with an inhibition constant (Ki) greater than 10 µM. For `Cc1cccc(NC(=O)Nc2ccc(-c3cnc4c(-c5cnn(C)c5)cnn4c3N)cc2)c1` the value was 6.31 µM. The same measure for `COc1ccc(Nc2nccc(Nc3c(N[C@H](C)C(C)(C)C)c(=O)c3=O)n2)cc1OC`: 2 µM. With `N#Cc1ncc2nc1OCCCCCOc1cc(OCCO)c(Cl)cc1NC(=O)N2`, the Ki was greater than 10 µM. The same measure for `c1ccc(COc2ccc(Nc3ncnc4ccccc34)cc2)cc1`: greater than 10 µM; for `Cn1cc(-c2ccncn2)c(-c2ccc(F)cc2)n1`: greater than 10 µM; for `Cc1cc(Nc2cc(N3CCN(C)CC3)nc(/C=C/c3ccccc3)n2)n[nH]1`: greater than 10 µM. `COCCOCC#Cc1cc(-c2n[nH]c3c2C(=O)c2cc(CN4CCN(C)CC4)ccc2-3)cs1` yielded a Ki greater than 10 µM. The same measure for `Cc1nccn2c(-c3ccnc(NCC4(O)CC4)n3)c(-c3ccc(F)cc3F)nc12`: greater than 10 µM.

`O=c1c(NCCc2ccc(Oc3ccccc3)cc2)c(Nc2ccncc2)c1=O` displayed an inhibition constant Ki greater than 10 µM.

On to `CCOc1nc(C(=O)NCc2ccncc2)cc(N)c1C#N`, for which the inhibition constant Ki was greater than 10 µM. Consider `C/C(=N/NC(=N)N)c1cc(NC(=O)NCCCN(C)CCCNC(=O)Nc2cc(/C(C)=N\NC(=N)N)cc(/C(C)=N/NC(=N)N)c2)cc(/C(C)=N/NC(=N)N)c1`, for which the Ki is greater than 10 µM.

The molecule `CC(=O)Nc1cc(N)c(C#N)c(-c2ccccc2)n1` displayed an inhibitory constant (Ki) greater than 10 µM. The same measure for `CC(=O)Nc1cc(N)c(C#N)c(-c2ccsc2)n1`: greater than 10 µM. `O=C(O)c1ccccc1Nc1ccnc(Nc2cccc(O)c2)n1`: the inhibitory constant (Ki) was determined as 0.794 µM. Regarding `Cc1nccn2c(-c3ccnc(NCCC(C)(C)O)n3)c(-c3ccc(F)cc3F)nc12`, the inhibitory constant (Ki) is greater than 10 µM. The molecule `Nc1nc2ccc(-c3c(-c4ccc(F)cc4)nc4sccn34)cc2n1CC1CC1` yielded a Ki greater than 10 µM.

On to `O=C(NCc1ccc(Br)cc1)Nc1ccc2[nH]ncc2c1`, for which the inhibitory constant (Ki) was 1 µM. Molecule `CN1CCN([C@H]2CC[C@H](n3cc(-c4ccc(Oc5ccccc5)cc4)c4c(N)ncnc43)CC2)CC1` gave a Ki greater than 10 µM. The same measure for `Cc1cccc(NC(=O)Cc2ccc(-c3cccc4[nH]nc(N)c34)cc2)c1`: 0.794 µM. In turn, `COc1cc2c(Oc3ccc4[nH]c(C)cc4c3F)ncnc2cc1OCCCN1CCCC1` yielded a Ki greater than 10 µM. The same measure for `Cc1ccc(NC(=O)Nc2ccc(NC(=O)c3csc4ncnc(N)c34)cc2)cc1`: greater than 10 µM.

The molecule `CC(C)(O)CNc1nccc(-c2c(-c3ccc(F)cc3F)nc3c(CC4CC4)nccn23)n1` came in with an inhibition constant (Ki) greater than 10 µM. As to `Nc1nccc2scc(-c3ccc(NC(=O)Nc4cccc(Br)c4)cc3)c12`, the Ki was greater than 10 µM. Consider `NC(=O)C1CCCN(C(=O)c2cc(-c3ccc4[nH]ncc4c3)on2)C1` (centres undefined), for which the Ki was greater than 10 µM. The molecule `O=C(Nc1n[nH]c2ccc(-c3cn(Cc4ccccc4)nn3)cc12)c1ccccc1` gave an inhibition constant (Ki) of 0.0631 µM. `CC(=O)Nc1c(C(N)=O)sc2ccc(Cl)c(Cl)c12` gave a Ki of 3.98 µM. For `CC(C)Oc1ccc(-c2noc(-c3ccc(N[C@H]4CC[C@@H](C(=O)O)C4)cc3)n2)cc1Cl`, the inhibition constant (Ki) was greater than 10 µM.

For `CN1CCC(C(=O)n2nc(N)c3cc(-c4cn(Cc5ccccc5)nn4)ccc32)CC1`, the inhibition constant Ki amounted to 7.94 µM. For `O=c1ncn2nc(Sc3ccc(F)cc3F)ccc2c1-c1c(Cl)cccc1Cl` the value was greater than 7.94 µM; for `N#Cc1ccc2[nH]c(O)c(-c3ccc(CN4CCOCC4)cn3)c2c1`, 3.16 µM. For `Nc1ccc(-c2csc3c(/C=C/c4nc5ccccc5[nH]4)cnc(N)c23)cc1` the value was 7.94 µM; for `Fc1ccc(-c2ncn(CCN3CCOCC3)c2-c2ccc3[nH]ncc3c2)cc1`, greater than 10 µM; for `COc1ccc2c(NC(=O)Nc3cc(C(F)(F)F)ccn3)ccnc2c1`, greater than 10 µM. For `CN(C)C(=O)c1c(-c2ccc3[nH]ncc3c2)nnn1Cc1ccccc1`, the Ki is 2 µM. For `N[C@H](COc1cncc(-c2ccc3c(c2)CC(=O)N3)c1)Cc1c[nH]c2ccccc12` the value was 1.26 µM. In the case of `Nc1nccc2scc(-c3ccc(NC(=O)Nc4cccc(Cl)c4)cc3)c12`, the inhibition constant (Ki) is greater than 10 µM. Regarding `Cn1cc(-c2cnc(N)c3c(-c4ccc(NC(=O)Nc5ccc(OC(F)F)cc5)cc4)csc23)cn1`, the Ki is greater than 10 µM. Regarding `COc1cccc(NC(=O)c2cnn3c(-c4ccccc4)ccnc23)c1`, the inhibition constant Ki was greater than 10 µM. Molecule `O=c1cc(-c2ccncc2)nc(NC2CCCCC2)[nH]1` displayed a Ki greater than 10 µM. As to `CC1(C)CC(=O)C2=C(C1)Nc1cc(Cl)ccc1S2`, the Ki was greater than 10 µM. The same measure for `CCOc1nc(C(=O)NCc2ccccc2S(N)(=O)=O)cc(N)c1C#N`: greater than 6.31 µM; for `CCN(CC)CC#Cc1ccc2c(c1)-c1[nH]nc(-c3ccc(C#N)nc3)c1C2`: greater than 10 µM; for `COc1cccc([C@H](C)NC(=O)c2ccc(-c3ccncc3)c(C)c2)c1`: 0.316 µM.

The molecule `O=C(Cc1ccccc1)Nc1cccc(-c2nc3sccn3c2-c2ccnc(Nc3cccc(N4CCCC4=O)c3)n2)c1` had an inhibitory constant (Ki) greater than 10 µM. `CC(C)(CO)CNc1nccc(-c2c(-c3ccc(F)cc3)nc3cnccn23)n1`: the Ki was greater than 10 µM.

Molecule `CCOc1nc(NC(C)=O)cc(N)c1C#N` returned an inhibition constant (Ki) greater than 10 µM. `O=C(N[C@H](CO)Cc1ccccc1)c1ccc(-c2ccncc2)cc1` registered an inhibitory constant (Ki) of 6.31 µM.

In turn, `Nc1ncnc2onc(-c3ccc(NC(=O)Nc4cccc(C(F)(F)F)c4)cc3)c12` yielded a Ki greater than 10 µM. The molecule `CC[C@H](CO)Nc1nc(NCc2ccccc2)c2ncn(C(C)C)c2n1` registered an inhibitory constant (Ki) greater than 10 µM. The molecule `O=C(N[C@H](CO)Cc1ccccc1)c1ccc(-c2ccncc2)cc1F` registered a Ki greater than 10 µM. In turn, `Cc1cccc(NC(=O)Nc2ccc(-c3csc4c(-c5cnn(C[C@H](C)O)c5)cnc(N)c34)cc2)c1` gave an inhibition constant (Ki) greater than 10 µM. For `CNCc1ccc(-c2[nH]c3cc(F)cc4c3c2CCNC4=O)cc1` the value was greater than 10 µM; for `CC(C)(C)c1n[nH]c2c1C(c1ccccc1F)C(C#N)=C(N)O2` (centres undefined), greater than 10 µM; for `Cc1n[nH]c2cnc(-c3cncc(OC[C@@H](N)Cc4cccc(C(F)(F)F)c4)c3)cc12`, 0.0631 µM. The same measure for `CCN1CCN(CCCC(=O)Nc2n[nH]c3nnc(-c4cccc(F)c4F)cc23)CC1`: greater than 10 µM; for `COc1ccc(NC(=O)Nc2ccc(-c3csc4c(-c5cnn(CCO)c5)cnc(N)c34)cc2)cc1`: greater than 10 µM. `O=C(c1cc(-c2ccc3[nH]ncc3c2)on1)N1CCCCC1`: the Ki is greater than 10 µM. `COc1cc(/C=C2\S/C(=N\c3ccccc3)NC2=O)ccc1O` returned a Ki of 5.01 µM. Regarding `Brc1ccc2c(c1)-c1[nH]ncc1C2`, the Ki was greater than 10 µM. For `NCC1CCC(CNc2nc(NCc3ccccc3Cl)ncc2[N+](=O)[O-])CC1` (centres undefined) the value was 5.01 µM; for `Cc1c[nH]c2nccc(Oc3c(F)cc(Nc4cc(Cl)nc(N)n4)cc3F)c12`, 0.251 µM; for `N[C@H](COc1cncc(-c2ccc3[nH]c(=O)oc3c2)c1)Cc1c[nH]c2ccccc12`, 5.01 µM. The same measure for `Cc1ccc(Cn2cc(-c3ccc4[nH]ncc4c3)nn2)c(C)c1`: 3.16 µM; for `COc1cc(Nc2ncc([N+](=O)[O-])c(Nc3ccccc3C(N)=O)n2)cc(OC)c1OC`: 0.2 µM. The molecule `CC[C@@H]1C(=O)N(C)c2cnc(Nc3ccc(C(=O)NC4CCCCC4)cc3OC)nc2N1C1CCCC1` returned a Ki greater than 10 µM. In turn, `CNC(=O)c1cc2c(-c3ccccc3F)n[nH]c2s1` had a Ki of 3.16 µM.

`COc1cc(-c2ccc3[nH]nc(C(=O)Nc4ccccc4)c3c2)ccc1O` came in with an inhibition constant Ki greater than 10 µM.

The molecule `O=c1c(NCc2ccc(Cl)c(Cl)c2)c(Nc2ccncc2)c1=O` had an inhibition constant (Ki) of 0.501 µM. `Cc1cccc(NC(=O)Nc2ccc(-c3ccc4nccnc4c3N)cc2)c1` displayed an inhibitory constant (Ki) greater than 10 µM. Molecule `COc1cc(/C=C(\C#N)c2nc3cc(C)ccc3[nH]2)c(Br)cc1O` returned a Ki of 5.01 µM. In the case of `NC(=O)c1cc2c(-c3ccc(Br)c(F)c3F)cncc2s1`, the Ki turned out to be 0.398 µM.

Turning to `CC(C)(C)NC(=O)c1ccc2nc3[nH]c4ccccc4c3nc2c1`, the inhibitory constant (Ki) is greater than 10 µM. In turn, `Nc1ccc(-c2cncc(OC[C@@H](N)Cc3c[nH]c4ccccc34)c2)cc1C(=O)c1ccccc1` gave an inhibition constant Ki greater than 10 µM.

The molecule `CCN(CC)CC#Cc1cnc(N)c2c(-c3ccc(NC(=O)Nc4cccc(C)c4)cc3)csc12` returned an inhibitory constant (Ki) greater than 10 µM. For the molecule `Clc1cc2nn[nH]c2cc1Cl`, the Ki is greater than 10 µM. The same measure for `Cc1ccc(C(=O)Nc2c(C#N)sc3ccc(Cl)c(Cl)c23)cc1`: greater than 10 µM; for `CCN(CC)CCCNc1cccc(-c2nc3c(C(N)=O)cccc3[nH]2)n1`: greater than 10 µM. The same measure for `CC(C)N(C)C(=O)c1c(-c2ccc3[nH]ncc3c2)nnn1Cc1ccccc1`: 0.631 µM; for `CCNC(=O)c1cnc(N)c2c(-c3ccc(NC(=O)Nc4cccc(F)c4)cc3)csc12`: greater than 10 µM; for `N[C@H](COc1cncc(-c2ccc(F)cc2)c1)Cc1c[nH]c2ccccc12`: greater than 10 µM. Molecule `COc1cccc([C@@H](C)NC(=O)c2ccc(-c3ccncn3)cc2)c1` came in with a Ki of 0.631 µM. Molecule `CN1CC[C@H]1COc1cncc(CCc2ccncc2)c1` displayed a Ki greater than 10 µM.

In turn, `Cc1nc2c(sc3c(Br)ccc(Cl)c32)c(=O)o1` had a Ki greater than 10 µM.

Consider `COc1cccc(C(CN)NC(=O)c2ccc(-c3ccncc3)cc2)c1` (centres undefined), for which the Ki came to 0.251 µM. For `O=C(NNC(=S)Nc1ccc(F)cc1)C(O)(c1ccccc1)c1ccccc1` the value was greater than 10 µM; for `NS(=O)(=O)c1cccc(Nc2ncc3ccn(-c4ccccc4)c3n2)c1`, 1.26 µM; for `N#Cc1ncc2nc1OCC(O)C(O)COc1ccc(Cl)cc1NC(=O)N2` (centres undefined), greater than 10 µM. `Cc1cccc(NC(=O)Nc2ccc(-c3csc4c(C#CCNS(C)(=O)=O)cnc(N)c34)cc2)c1` yielded a Ki of 10 µM. The molecule `O=C(NS(=O)(=O)c1ccc(NCCSc2ccc(O)cc2)c([N+](=O)[O-])c1)c1ccc(-c2ccc(F)cc2)cc1` came in with a Ki greater than 10 µM.
